Values quoted from earlier work in patent US20250064731A1, “A LIQUID PHARMACEUTICAL FORMULATION OF CLONIDINE HYDROCHLORIDE” (NOVUMGEN LIMITED, priority 2022, published 2025).

Settings: after oral administration

absorption from the gastrointestinal tract: almost completely absorbed
liver metabolism: rapid liver metabolism
SMILES: Clc1cccc(Cl)c1N=C1NCCN1 [clonidine, N-(2,6-dichlorophenyl)-4,5-dihydro-1H-imidazol-2-amine]
